Experimental data published in PMC10704959 (Biochemistry, 2023).

Target: MoLOX (Pyricularia oryzae, UniProt G4NAP4)
Conditions: read-out: KMμM

MoLOX, sequence (G4NAP4 17-619 limits assumed): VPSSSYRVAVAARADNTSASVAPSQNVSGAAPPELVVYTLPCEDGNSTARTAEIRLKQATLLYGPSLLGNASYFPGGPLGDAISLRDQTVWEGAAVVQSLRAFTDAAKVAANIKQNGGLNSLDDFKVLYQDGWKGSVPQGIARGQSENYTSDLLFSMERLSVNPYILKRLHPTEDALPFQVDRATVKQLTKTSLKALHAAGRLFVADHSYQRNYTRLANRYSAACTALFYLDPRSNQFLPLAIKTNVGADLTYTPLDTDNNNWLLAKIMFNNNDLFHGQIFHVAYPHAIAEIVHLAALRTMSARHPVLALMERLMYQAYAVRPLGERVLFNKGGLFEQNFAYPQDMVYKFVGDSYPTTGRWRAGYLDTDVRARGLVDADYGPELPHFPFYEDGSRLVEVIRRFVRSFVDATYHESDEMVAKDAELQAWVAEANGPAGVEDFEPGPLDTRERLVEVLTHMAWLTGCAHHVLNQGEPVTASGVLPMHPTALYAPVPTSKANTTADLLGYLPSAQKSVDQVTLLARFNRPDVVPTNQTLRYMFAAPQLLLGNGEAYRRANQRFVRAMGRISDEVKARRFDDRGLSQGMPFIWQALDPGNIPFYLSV

## CCCCC/C=C\C/C=C\CCCCCCCC(=O)O [LA, linoleic acid]
  Km: 14 ± 2 µM
